Legend:
Assay type in all cases: in vivo
Veronica persica (VERPE) [1] = test: E. Herbicidal post-emergence efficacy, VERPE
Procedure: (§1) Seeds of monocotyledonous and dicotyledonous weeds and crop plants were placed in sandy loam in plastic or organic planting pots, covered with soil and cultivated in a greenhouse under controlled growth conditions. 2 to 3 weeks after sowing, the test plants were treated at the one-leaf stage. The compounds of the invention, formulated in the form of wettable powders (WP) or as emulsion concentrates (EC), were then sprayed onto the green parts of the plants as aqueous suspension or emulsion with addition of 0.5% additive at a water application rate of 600 l/ha (converted). After the test plants had been kept in the greenhouse under optimum growth conditions for about 3 weeks, the activity of the preparations was rated visually in comparison to untreated controls.
(§2) For example, • 100% efficacy=plants have died, • 0% action=like untreated control plants.
(§3) Tables E1a to E12b below show the effects of selected compounds of the general formula (I) according to table 1 on various harmful plants at an application rate corresponding to 320 g/ha or less, which were obtained by the experimental procedure mentioned above.

Zea mays (ZEAMX) [2] = test: F. Post-emergence effect on useful plants, ZEAMX; details: useful plant
Procedure: as §1, §2
(§4) Tables F1a to F4 below show the effects of selected compounds of the general formula (I) according to table 1 on various useful plants at an application rate corresponding to 320 g/ha or less, which were obtained by the experimental procedure mentioned above.

Kochia scoparia (KCHSC) [3] = test: E. Herbicidal post-emergence efficacy, KCHSC; details: application rate 320 g/ha
Procedure: as §1, §2, §3

Viola tricolor (VIOTR) [4] = test: C. Herbicidal pre-emergence efficacy, VIOTR
Description: (§5) Seeds of monocotyledonous and dicotyledonous weed plants and crop plants were placed in plastic or organic planting pots and covered with soil. The compounds of the invention, formulated in the form of wettable powders (WP) or as emulsion concentrates (EC), were then applied to the surface of the covering soil as aqueous suspension or emulsion with addition of 0.5% additive at a water application rate equivalent to 600 l/ha (converted). After the treatment, the pots were placed in a greenhouse and kept under good growth conditions for the test plants. After about 3 weeks, the efficacy of the preparations was scored visually in comparison with untreated controls as percentages. For example, • 100% efficacy=plants have died, • 0% efficacy=like untreated control plants.
(§6) Tables C1a to C14b below show the effects of selected compounds of the general formula (I) according to table 1 on various harmful plants at an application rate corresponding to 320 g/ha or less, which were obtained by the experimental procedure mentioned above.

Viola tricolor (VIOTR) [5] = test: E. Herbicidal post-emergence efficacy, VIOTR; details: application rate 320 g/ha
Procedure: as §1, §2, §3

[6] = system: Triticum aestivum (TRZAS); test: F. Post-emergence effect on useful plants, TRZAS; details: useful plant
Procedure: as §1, §2, §4

Kochia scoparia (KCHSC) [7] = test: C. Herbicidal pre-emergence efficacy, KCHSC; details: application rate 320 g/ha
Description: as §5, §6

Zea mays (ZEAMX) [8] = test: D. Pre-emergence effect on useful plants, ZEAMX; details: useful plant
Description: as §5
Tables D1a to D5b below show the effects of selected compounds of the general formula (I) according to table 1 on various useful plants at an application rate corresponding to 320 g/ha or less, which were obtained by the experimental procedure mentioned above.

[9] = system: Echinochloa crus-galli (ECHCG); test: C. Herbicidal pre-emergence efficacy, ECHCG; details: 320 g/ha, scored after about 3 weeks
Description: as §5, §6

[10] = system: Pharbitis purpurea (PHBPU); test: E. Herbicidal post-emergence efficacy, PHBPU; details: application rate 320 g/ha
Procedure: as §1, §2, §3

Lolium rigidum (LOLRI) = test: C. Herbicidal pre-emergence efficacy, LOLRI; details: 320 g/ha, scored after about 3 weeks
Description: as §5, §6

[11] = system: Abutilon theophrasti (ABUTH); test: E. Herbicidal post-emergence efficacy, ABUTH; details: application rate 320 g/ha
Procedure: as §1, §2, §3

[12] = system: Echinochloa crus-galli (ECHCG); test: E. Herbicidal post-emergence efficacy, ECHCG; details: application rate 320 g/ha
Procedure: as §1, §2, §3

Veronica persica (VERPE) [13] = test: C. Herbicidal pre-emergence efficacy, VERPE; details: 320 g/ha, scored after about 3 weeks
Description: as §5, §6

Setaria viridis (SETVI) = test: C. Herbicidal pre-emergence efficacy, SETVI; details: 320 g/ha, scored after about 3 weeks
Description: as §5, §6

[14] = system: Amaranthus retroflexus (AMARE); test: E. Herbicidal post-emergence efficacy, AMARE
Procedure: as §1, §2, §3

[15] = system: Digitaria sanguinalis (DIGSA); test: C. Herbicidal pre-emergence efficacy, DIGSA; details: scored after about 3 weeks
Description: as §5, §6

[16] = system: Amaranthus retroflexus (AMARE); test: C. Herbicidal pre-emergence efficacy, AMARE; details: scored after about 3 weeks
Description: as §5, §6

## Cc1cccc(Oc2ncc(Cl)cn2)c1OS(=O)(=O)CC=C(Cl)Cl [Example I-83]
Veronica persica (VERPE) [1]; application rate 80 g/ha
  Post-emergence efficacy against VERPE in %: 80%
Veronica persica (VERPE) [1]; application rate 320 g/ha
  Post-emergence efficacy against VERPE in %: 100%
Zea mays (ZEAMX) [2]; application rate 80 g/ha
  Post-emergence efficacy against ZEAMX in %: 10%
Zea mays (ZEAMX) [2]; application rate 320 g/ha
  Post-emergence efficacy against ZEAMX in %: 20%
Kochia scoparia (KCHSC) [3]
  Post-emergence efficacy against KCHSC in %: 80%
Viola tricolor (VIOTR) [4]; application rate 80 g/ha
  Pre-emergence efficacy against VIOTR in %: 90%
Viola tricolor (VIOTR) [4]; application rate 320 g/ha
  Pre-emergence efficacy against VIOTR in %: 100%
Viola tricolor (VIOTR) [5]
  Post-emergence efficacy against VIOTR in %: 100%
[6]; application rate 80 g/ha
  Post-emergence efficacy against TRZAS in %: 0%
[6]; application rate 320 g/ha
  Post-emergence efficacy against TRZAS in %: 20%
Kochia scoparia (KCHSC) [7]
  Pre-emergence efficacy against KCHSC in %: 80%
Zea mays (ZEAMX) [8]; application rate 80 g/ha
  Pre-emergence efficacy against ZEAMX in %: 0%
Zea mays (ZEAMX) [8]; application rate 320 g/ha
  Pre-emergence efficacy against ZEAMX in %: 0%
[9]
  Pre-emergence efficacy against ECHCG: 90%
[10]
  Post-emergence efficacy against PHBPU in %: 100%
Lolium rigidum (LOLRI)
  Pre-emergence efficacy against LOLRI: 80%
[11]
  Post-emergence efficacy against ABUTH in %: 80%
[12]
  Post-emergence efficacy against ECHCG in %: 80%
Veronica persica (VERPE) [13]
  Pre-emergence efficacy against VERPE: 90%
Setaria viridis (SETVI)
  Pre-emergence efficacy against SETVI: 100%
[14]; application rate 80 g/ha
  Post-emergence efficacy against AMARE in %: 90%
[14]; application rate 320 g/ha
  Post-emergence efficacy against AMARE in %: 100%
[15]; 80 g/ha
  Pre-emergence efficacy against DIGSA: 80%
[15]; 320 g/ha
  Pre-emergence efficacy against DIGSA: 100%
[16]; 80 g/ha
  Pre-emergence efficacy against AMARE: 80%
[16]; 320 g/ha
  Pre-emergence efficacy against AMARE: 100%

From patent publication US20240174618A1, “SUBSTITUTED (2-HETEROARYLOXYPHENYL)SULFONATES, SALTS THEREOF AND THEIR USE AS HERBICIDAL AGENTS” (Bayer Aktiengesellschaft, priority 2021, published 2024)
